Patent US11918552B2, “N-acetylcysteine for use as antibacterial agent” (priority 2016, dated 2024)
In brackets after ≈: the same amount, converted by molar mass.

Columns and labels:
[1] = system: S. maltophilia clinical isolates; experiment: MIC by broth microdilution; assay type: cell-based; conditions: Stenotrophomonas maltophilia
[2] = system: BCC (B. cepacia, B. cenocepacia, B. multivorans, B. metallica, B. seminalis, B. stabilis) clinical isolates; experiment: organism not typed; assay type: cell-based, Burkholderia cepacia complex
BCC biofilm = experiment: Inhibition of biofilm formation, MBEC High-Throughput Assay, viable cell count; assay type: cell-based, Burkholderia cepacia complex; conditions: NAC 4, 8 and 16 mg/ml, two BCC isolates
BCC isolates [3] = experiment: Effect of sub-MIC concentrations on growth curves; assay type: cell-based, Burkholderia cepacia complex; conditions: sub-MIC concentrations (4 and 8 mg/ml), all 4 tested BCC isolates
S. maltophilia isolates [4] = experiment: Effect of sub-MIC concentrations on growth curves; assay type: cell-based, Stenotrophomonas maltophilia; conditions: sub-MIC concentrations (4 and 8 mg/ml), all 4 tested S. maltophilia isolates
S. maltophilia isolates [5] = experiment: Time-kill assay; assay type: cell-based, Stenotrophomonas maltophilia; conditions: NAC 32 mg/ml
S. maltophilia biofilm = experiment: Inhibition of biofilm formation, MBEC High-Throughput Assay, viable cell count; assay type: cell-based, Stenotrophomonas maltophilia; conditions: NAC 4, 8 and 16 mg/ml, all S. maltophilia isolates
BCC isolates [6] = experiment: Time-kill assay; assay type: cell-based, Burkholderia cepacia complex; conditions: NAC 32 mg/ml

CC(=O)N[C@@H](CS)C(=O)O [NAC, N-acetylcysteine]
MIC ([1]; nine of 16 S. maltophilia clinical isolates): 16 mg/mL (≈ 98 mM) | MIC ([1]; remaining S. maltophilia isolates (of 16)): 32 mg/mL (≈ 196 mM) | MIC ([2]; remaining BCC isolates (of 16)): 32 mg/mL (≈ 196 mM) | MIC ([2]; seven of 16 BCC clinical isolates): 16 mg/mL (≈ 98 mM) | Inhibition of biofilm formation (BCC biofilm): inhibit biofilm formation in a dose-dependent fashion | Effect on growth (BCC isolates [3]): slowed down the growth | Effect on growth (S. maltophilia isolates [4]): slowed down the growth | Reduction of bacterial inoculum (bactericidal) (S. maltophilia isolates [5]; one S. maltophilia isolate): more than 3 logs | Reduction of bacterial inoculum (S. maltophilia isolates [5]; remaining S. maltophilia isolates): < 1 log CFU/ml | Inhibition of biofilm formation (S. maltophilia biofilm): inhibit biofilm formation in a dose-dependent fashion | Reduction of bacterial inoculum (bactericidal) (BCC isolates [6]; one BCC isolate): more than 3 logs | Reduction of bacterial inoculum (BCC isolates [6]; remaining BCC isolates): < 1 log CFU/ml
